{"source": "patent US11413321B2", "about": "“Pharmaceutical composition for use in increasing hair, modifying scalp or skin, healing a wound, promoting osteogenesis, or modifying hair” (priority 2017, dated 2022)", "type_in_all_cases": "in vivo, Wistar rat", "key": {"CD68-positive cells [1]": {"test_system": "CD68-positive cells", "assay": "Immunohistological staining of rat dorsal skin after injection of fatty acids (CD68)", "conditions": "1 mg fatty acid in 20 μL per location; for number of CD68-positive cells (overall statement): a weak effect was observed overall", "procedure": "(§1) Next, representative fatty acids contained in milk were administered to a 12-week-old Wistar rat at a plurality of locations on the dorsal skin as in Example 1(2) above, and a change in tissues by the administration was observed after the tissues were subjected to immunohistological staining. More specifically, physiological saline was administered in an amount of 20 μL per location, an administration liquid containing 1 mg of a fatty acid was administered in an amount of 20 μL per location, and a change in CD68-positive macrophage stained images and PPAR-γ-positive cell images by the administration was observed. Samples of the Wistar rat were obtained by sampling administration sites (four weeks after administration and eight weeks after administration). FIGS. 10A to 10G show the results. […] At saturated fatty acid injection sites, infiltration of a large number of CD68-positive cells was observed, and fibrillization of normal tissues was observed. Therefore, in FIGS. 10B to 10D, a change in fat tissues was examined at a location which was closest to the administration site and where normal tissues were maintained (non-fibrillization location)."}, "PPAR-γ-positive cells [2]": {"test_system": "PPAR-γ-positive cells", "assay": "Immunohistological staining of rat dorsal skin after injection of fatty acids (PPAR-γ)", "conditions": "1 mg fatty acid in 20 μL per location; for number of PPAR-γ-positive cells at the administration site: four weeks after administration, vs physiological saline, FIGS. 10B-10G; for increase in the number of PPAR-γ-positive cells at the administration site: eight weeks after administration", "procedure": "as §1"}, "[3]": {"test_system": "full-thickness skin defect", "assay": "Wound healing score, circular full-thickness skin defect on the dorsal part", "procedure": "Formation of wounds: hair on the dorsal part of a 12-week-old Wistar rat was shaven with hair clippers, and a circular full-thickness skin defect with a diameter of 8 mm was produced on each of the left and right sides of the head and the left and right sides of the tail. The full-thickness skin defect was formed at four locations per body.\nAdministration of milk: 20 μL of milk was subcutaneously injected at each of four locations, namely upper, lower, left and right, in a place 4 mm away from the peripheral edge of the wound. As the milk, the commercially available bovine milk sterilized by heating (at 130 degrees for 2 seconds and 65 degrees for 30 minutes) as described in Example 1 was used.\nAdministration of fatty acid: As a fatty acid contained in the milk, sterile purified water (administration liquid) containing palmitic acid, stearic acid, myristic acid, linolenic acid, α-linoleic acid and oleic acid, respectively was administered. Here, the water was heated and administered for the saturated fatty acids, and the water was administered at room temperature for the unsaturated fatty acids. 20 μL of the administration liquid (containing 1 mg of the fatty acid) was subcutaneously administered at each of four locations, namely upper, lower, left and right, in a place 4 mm away from the peripheral edge of the wound.\nScore 4: The reduction ratio of the area of the wound site is 70% or more.\nScore 3: The reduction ratio of the area of the wound site is 50% or more and less than 70%.\nScore 2: The reduction ratio of the area of the wound site is 20% or more and less than 50%.\nScore 1: The reduction ratio of the area of the wound site is less than 20%.\nThe result was given as a ratio obtained by dividing the above score by the score for physiological saline.\nTwo tubes of 8 mL of commercially available milk sterilized at a low temperature (65 degrees for 30 minutes) were centrifuged by a centrifugal separator (2600 g×6 minutes), 2 mL of one fourth of the supernatant exclusive of a whip portion was collected from each tube, the two collected liquids were combined to obtain 4 mL of a liquid, and 4 mL of the resulting liquid was stirred, and used for experiments (hereinafter, the obtained sample is referred to as a “centrifuged sample”). The obtained centrifuged sample was administered to the wound site at a dosage of 20 μL per location in the same manner as described above. The results are shown in “Centrifuged Sample” in FIG. 6A.\nNext, a wound healing-promoting effect of lactoferrin was examined. As lactoferrin, Nice rim essence 62971 (trade name) purchased from Lion Corporation was used and administered at one location in an amount of 20 μg or 60 μg in the same manner as described above. Specifically, the lactoferrin was ground, and then thoroughly dissolved in purified water. The lactoferrin concentration was adjusted so that an injection amount of 20 μL included the above administration amount. The result was given as a value obtained by dividing each of scores after seven days and after ten days by the score for the physiological saline administration group."}, "CD68-positive cells [4]": {"test_system": "CD68-positive cells", "assay": "Immunohistological staining of rat dorsal skin after forced oral lactoferrin (CD68)", "conditions": "300 mg oral once a day, eight weeks after administration, n=3; FIG. 9", "procedure": "(§2) As a comparative test, lactoferrin was administered instead of milk, and whether the number of CD68-positive cells and the number of PPAR-γ-positive cells increased or not was examined. As lactoferrin, three tablets of Nice rim essence 62971 (manufactured by Lion Corporation) corresponding to 300 mg of active lactoferrin (amount ingested per day by a human) were orally administered to a 12-week-old Wistar rat (n=3). Administration was performed once a day with the tablets injected (forcedly ingested) into the stomach using a feeding needle. Eight weeks after administration, a paraffin-embedded section of the dorsal skin was prepared by a conventional method, and subjected to immunohistological staining."}, "PPAR-γ-positive cells [5]": {"test_system": "PPAR-γ-positive cells", "assay": "Immunohistological staining of rat dorsal skin after forced oral lactoferrin (PPAR-γ)", "conditions": "300 mg oral once a day, eight weeks after administration, n=3; FIG. 9", "procedure": "as §2"}, "[6]": {"conditions": "eight weeks after administration"}, "[7]": {"conditions": "four weeks after administration, vs physiological saline"}, "[8]": {"conditions": "20 μL administration liquid containing 1 mg of the fatty acid at each of four locations, FIG. 6C"}}, "data": [{"molecule": "CC/C=C\\C/C=C\\C/C=C\\CCCCCCCC(=O)O", "note": "[α-linolenic acid]", "values": [{"measurement": "number of CD68-positive cells (overall statement)", "setting": "CD68-positive cells [1]", "value": "did not greatly increase"}, {"measurement": "number of CD68-positive cells at the administration site", "setting": "CD68-positive cells [1]; [6]", "value": "increased"}, {"measurement": "number of CD68-positive cells at the administration site", "setting": "CD68-positive cells [1]; [7]", "value": "did not remarkably increase"}, {"measurement": "number of PPAR-γ-positive cells at the administration site", "setting": "PPAR-γ-positive cells [2]", "value": "did not remarkably increase"}, {"measurement": "wound healing-promoting effect (score divided by the score for physiological saline)", "setting": "[3]; [8]", "value": "weak wound healing-promoting effect"}]}, {"molecule": "lactoferrin", "values": [{"measurement": "number of CD68-positive cells in dorsal skin", "setting": "CD68-positive cells [4]", "value": "did not increase"}, {"measurement": "number of PPAR-γ-positive cells in dorsal skin", "setting": "PPAR-γ-positive cells [5]", "value": "did not increase"}, {"measurement": "wound healing-promoting effect (score divided by the score for physiological saline)", "setting": "[3]; 20 μg or 60 μg per location in 20 μL, after seven days and after ten days, FIG. 6B", "value": "did not exhibit a significant promoting effect"}]}, {"molecule": "CCCCCCCCCCCCCCCCCC(=O)O", "note": "[stearic acid]", "values": [{"measurement": "number of CD68-positive cells at the administration site", "setting": "CD68-positive cells [1]; [6]", "value": "maintained"}, {"measurement": "number of CD68-positive cells at the administration site", "setting": "CD68-positive cells [1]; [7]", "value": "increased"}, {"measurement": "increase in the number of PPAR-γ-positive cells at the administration site", "setting": "PPAR-γ-positive cells [2]", "value": "maintained"}, {"measurement": "number of PPAR-γ-positive cells at the administration site", "setting": "PPAR-γ-positive cells [2]", "value": "increased"}, {"measurement": "wound healing-promoting effect (score divided by the score for physiological saline)", "setting": "[3]; [8]", "value": "high promoting effect"}]}, {"molecule": "CCCCC/C=C\\C/C=C\\CCCCCCCC(=O)O", "note": "[linoleic acid]", "values": [{"measurement": "number of CD68-positive cells (overall statement)", "setting": "CD68-positive cells [1]", "value": "did not greatly increase"}, {"measurement": "number of CD68-positive cells at the administration site", "setting": "CD68-positive cells [1]; [6]", "value": "increased"}, {"measurement": "number of CD68-positive cells at the administration site", "setting": "CD68-positive cells [1]; [7]", "value": "did not remarkably increase"}, {"measurement": "number of PPAR-γ-positive cells at the administration site", "setting": "PPAR-γ-positive cells [2]", "value": "did not remarkably increase"}, {"measurement": "wound healing-promoting effect (score divided by the score for physiological saline)", "setting": "[3]; [8]", "value": "weak wound healing-promoting effect"}]}, {"molecule": "CCCCCCCC/C=C\\CCCCCCCC(=O)O", "note": "[oleic acid]", "values": [{"measurement": "number of CD68-positive cells (overall statement)", "setting": "CD68-positive cells [1]", "value": "did not greatly increase"}, {"measurement": "number of CD68-positive cells at the administration site", "setting": "CD68-positive cells [1]; [6]", "value": "increased"}, {"measurement": "number of CD68-positive cells at the administration site", "setting": "CD68-positive cells [1]; [7]", "value": "did not remarkably increase"}, {"measurement": "number of PPAR-γ-positive cells at the administration site", "setting": "PPAR-γ-positive cells [2]", "value": "did not remarkably increase"}, {"measurement": "wound healing-promoting effect (score divided by the score for physiological saline)", "setting": "[3]; [8]", "value": "weak wound healing-promoting effect"}]}, {"molecule": "CCCCCCCCCCCCCC(=O)O", "note": "[myristic acid]", "values": [{"measurement": "number of CD68-positive cells at the administration site", "setting": "CD68-positive cells [1]; [6]", "value": "maintained"}, {"measurement": "number of CD68-positive cells at the administration site", "setting": "CD68-positive cells [1]; [7]", "value": "increased"}, {"measurement": "increase in the number of PPAR-γ-positive cells at the administration site", "setting": "PPAR-γ-positive cells [2]", "value": "maintained"}, {"measurement": "number of PPAR-γ-positive cells at the administration site", "setting": "PPAR-γ-positive cells [2]", "value": "increased"}, {"measurement": "wound healing-promoting effect (score divided by the score for physiological saline)", "setting": "[3]; [8]", "value": "high promoting effect"}]}]}
